IC50, EC50 and Activity data for 44 compounds are collected here from ChEMBL document CHEMBL5375960, “Design and Synthesis of Novel Cereblon Binders for Use in Targeted Protein Degradation” (J Med Chem, 2023).

pEC50, pIC50: −log10 of the molar value. Active and inactive are the calls of the source. No cut-off for these calls is given here.

Test [1] has as its target Protein cereblon/DNA damage-binding protein 1 (Homo sapiens, UniProt Q96SW2). In words: Displacement of Cy5-labeled tracer CC0782985 from 6His-tagged CRBN (1 to 442 residues)/DDB1 (1 to 1140 residues) (unknown origin) incubated for 20 mins by TR-FRET assay. Type of test: protein assay. Background: TR-FRET usually uses a lanthanide donor and a delayed reading to cut background.

Test [2] addresses Zinc finger protein Aiolos (Homo sapiens, UniProt Q9UKT9). In words: Induction of ePL tagged Aiolos degradation in human DF15 cells incubated for 4 hrs by luminescence based assay. Type of test: cell-based.
Test [3] addresses T1, Eukaryotic peptide chain release factor GTP-binding subunit ERF3A (Homo sapiens, UniProt P15170). In words: Induction of ePL tagged GSPT1 degradation in human DF15 cells incubated for 20 hrs by luminescence based assay. Type of test: cell-based.
The target of test [4] is T1, Eukaryotic peptide chain release factor GTP-binding subunit ERF3A. In words: Induction of ePL tagged GSPT1 degradation in human DF15 cells assessed as remaining activity incubated for 20 hrs by luminescence based assay relative to control. In kind it is cell-based. On the set-up: concentration or dose not given beside the values.
Test [5] deals with T2, Androgen receptor (Homo sapiens) (UniProt P10275).
T2 sequence (whole entry): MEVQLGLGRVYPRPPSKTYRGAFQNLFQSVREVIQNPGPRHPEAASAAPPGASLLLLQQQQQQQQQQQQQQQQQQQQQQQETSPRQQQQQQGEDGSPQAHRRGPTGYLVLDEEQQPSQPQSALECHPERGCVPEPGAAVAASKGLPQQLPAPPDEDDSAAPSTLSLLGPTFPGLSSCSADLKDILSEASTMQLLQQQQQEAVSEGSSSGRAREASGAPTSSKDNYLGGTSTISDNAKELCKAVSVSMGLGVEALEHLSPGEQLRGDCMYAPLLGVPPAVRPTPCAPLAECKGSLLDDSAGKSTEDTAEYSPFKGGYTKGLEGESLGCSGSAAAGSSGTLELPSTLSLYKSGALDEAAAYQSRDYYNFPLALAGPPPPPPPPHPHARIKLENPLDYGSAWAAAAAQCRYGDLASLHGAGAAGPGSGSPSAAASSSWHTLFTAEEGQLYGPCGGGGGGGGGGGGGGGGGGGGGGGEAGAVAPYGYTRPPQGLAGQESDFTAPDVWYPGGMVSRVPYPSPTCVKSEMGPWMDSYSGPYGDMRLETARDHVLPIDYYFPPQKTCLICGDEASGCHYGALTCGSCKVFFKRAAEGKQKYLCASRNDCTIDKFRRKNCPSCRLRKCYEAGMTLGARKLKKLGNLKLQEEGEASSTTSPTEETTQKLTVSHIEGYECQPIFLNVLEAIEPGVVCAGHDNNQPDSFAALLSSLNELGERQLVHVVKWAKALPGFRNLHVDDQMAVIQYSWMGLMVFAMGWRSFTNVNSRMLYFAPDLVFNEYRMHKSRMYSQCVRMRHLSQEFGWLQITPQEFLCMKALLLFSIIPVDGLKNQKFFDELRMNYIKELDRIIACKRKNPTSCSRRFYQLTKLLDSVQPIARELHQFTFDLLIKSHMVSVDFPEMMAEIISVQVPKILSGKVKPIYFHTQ
In words: Induction of androgen receptor degradation in human VCaP cells incubated for 24 hrs by ELISA. In kind it is cell-based. Background: ELISA stands for enzyme-linked immunosorbent assay.

Test [6] deals with T1, Eukaryotic peptide chain release factor GTP-binding subunit ERF3A. In words: Induction of ePL tagged GSPT1 degradation in human DF15 cells incubated for 20 hrs by luminescence based assay relative to control. Type of test: cell-based.

The pIC50 is the IC50 on a negative log10 scale, so that one unit is a factor of ten. For orientation: pEC50 means the EC50 on a negative log10 scale, so that one unit is a factor of ten. Regarding `Cn1nc(C2CCC(=O)NC2=O)c2ccc(N)cc21` (stereo unspecified), in test [1], the pIC50 is 7.00. Moreover, the pEC50 in test [2] is < 5.00.
On the same counts, the results for `Nc1cccc(NC2CCC(=O)NC2=O)c1` (stereo unspecified) are 5.43 and < 5.00.
For `O=C1CCC(Nc2ccccc2)C(=O)N1` (stereo unspecified), in test [1], the pIC50 was 5.25. Further, the pEC50 in test [2] is < 5.00.
Take `Nc1ccc2c(c1)ncn2C1CCC(=O)NC1=O` (stereo unspecified): the pIC50 in test [1] was 6.23. Also, the pEC50 in test [2] is 6.51.
With `Nc1cccc2c1ncn2C1CCC(=O)NC1=O` (stereo unspecified), in test [1], the pIC50 is 6.09. The pEC50 in test [2] was < 5.00.
For `Cn1nc(N2CCC(=O)NC2=O)c2ccccc21` the same measures were 5.17 and < 5.00.
For `O=c1ccn(-c2ccccc2)c(=O)[nH]1` the same measures were < 4.00 and < 5.00.
For `Cn1nc(N2CCC(=O)NC2=O)c2cccc(N)c21` the same measures were 4.91 and < 5.00.
As to `O=C1CCN(c2ccccc2)C(=O)N1`, the pEC50 in test [2] was < 5.00.
Turning to `O=C1CCC(Oc2ccccc2)C(=O)N1` (stereo unspecified), in test [1], the pIC50 is 5.15. Further, the pEC50 in test [2] is < 5.00.
For `Cn1nc(C2CCC(=O)NC2=O)c2ccccc21` (stereo unspecified) the same measures were 6.82 and < 5.00.
For `COc1ccc(C2CCC(=O)NC2=O)cc1` (stereo unspecified), the pIC50 in test [1] was 5.66. In addition, the pEC50 in test [2] was < 5.00.
On to `O=C1CCC(n2ncc3ccccc32)C(=O)N1` (stereo unspecified), for which the pEC50 in test [2] was < 5.00.
As to `Nc1cccc(C(=O)NC2CCC(=O)NC2=O)c1` (stereo unspecified), the negative logarithm of the IC50 (pIC50) in test [1] is 4.59. Besides, in test [2], the pEC50 is < 5.00.
For `Nc1cccc(N[C@@H]2CCC(=O)NC2=O)c1` the same measures were 5.54 and < 5.00.
For `O=C1CC[C@H](N2Cc3c(OCc4ccc(CN5CCOCC5)cc4)cccc3C2=O)C(=O)N1` [IBERDOMIDE], the results for the pEC50 in test [3] and in test [2] were < 5.00 and 9.00, respectively. In test [4], the Activity turned out to be 88.8%.
Regarding `Nc1ccc2ncn(C3CCC(=O)NC3=O)c2c1` (stereo unspecified), the pIC50 in test [1] was 6.13. This compound had a pEC50 in test [2] of 6.85.
Turning to `Nc1ccc(NC2CCC(=O)NC2=O)cc1` (stereo unspecified), in test [1], the pIC50 is 4.91. Moreover, in test [2], the pEC50 was < 5.00.
As for `O=C1CCC(n2cnc3ccc(OCc4ccc(CN5CCOCC5)cc4)cc32)C(=O)N1` (stereo unspecified), the pEC50 in test [3] is < 5.00; in test [2], 7.15. Further, in test [1], the pIC50 is 6.55. The Activity in test [4] is 99%.
On the same counts, the results for `O=C1CCN(c2ccc(OCc3ccc(CN4CCOCC4)cc3)cc2)C(=O)N1` are < 5.00, < 5.00, 5.10 and 97.1%.
For `Cc1ccc(NC(=O)NCc2ccccc2C(=O)NC2CCC(=O)NC2=O)cc1Cl` (stereo unspecified) the same measures were < 5.00, < 5.00, 4.99 and 88.4%.
For `Nc1ccc(N2CCC(=O)NC2=O)cc1`, the outcome in test [5] was inactive. Moreover, in test [1], the pIC50 was 4.63. Besides, the pEC50 in test [2] was < 5.00.
Consider `Cc1ccc(NC(=O)NCc2ccc(C(=O)NC3CCC(=O)NC3=O)cc2)cc1Cl` (stereo unspecified), for which the pEC50 was 7.00 in test [3] and < 5.00 in test [2]. Besides, in test [1], the pIC50 is 5.47. Moreover, the Activity in test [4] was found to be 33.7%.
On the same counts, the results for `Cc1ccc(NC(=O)NCc2cccc(C3CCC(=O)NC3=O)c2)cc1Cl` (stereo unspecified) are < 5.00, < 5.00, 5.82 and 92.8%.
For the compound `Nc1cccc(C2CCC(=O)NC2=O)c1` (stereo unspecified), the outcome in test [5] was Active. In test [1], the pIC50 was 5.64. For the same compound, the pEC50 in test [2] was < 5.00.
Turning to `Cn1nc(C2CCC(=O)NC2=O)c2cccc(N)c21` (stereo unspecified), in test [1], the pIC50 is 6.72. For the same compound, the pEC50 in test [2] is < 5.00.
`O=C1CCN(c2cccc(OCc3ccc(CN4CCOCC4)cc3)c2)C(=O)N1`: the pEC50 in test [3] and in test [2] was < 5.00 each time. The same compound gave a pIC50 in test [1] of 5.48. Further, in test [4], the Activity turned out to be 94%.
Take `Cc1ccc(NC(=O)NCc2cccc(N3CCC(=O)NC3=O)c2)cc1Cl`: the pEC50 in test [3] and in test [2] was < 5.00 throughout. This compound showed a pIC50 in test [1] of 5.07. The Activity in test [4] was determined as 95.2%.
Take `Nc1cccc(N2CCC(=O)NC2=O)c1`: in test [5], the outcome was inactive. In test [1], this compound had a negative-log IC50 (pIC50) of 4.93. The pEC50 in test [2] was < 5.00.
Compound `Nc1cccc(N[C@H]2CCC(=O)NC2=O)c1` gave a pIC50 in test [1] of 5.85. The pEC50 in test [2] was < 5.00.
Consider `Nc1ccc(C2CCC(=O)NC2=O)cc1` (stereo unspecified), for which the result in test [5] was Active. This compound also had a pIC50 in test [1] of 5.92. In test [2], the negative logarithm of the EC50 (pEC50) is < 5.00.
Turning to `O=C1CCC(c2cccc(OCc3ccc(CN4CCOCC4)cc3)c2)C(=O)N1` (stereo unspecified), the pEC50 in test [3] and in test [2] was < 5.00 throughout. In addition, the pIC50 in test [1] is 6.24. The Activity in test [4] amounted to 96.6%.
`Cc1ccc(NC(=O)NCc2ccc(C3CCC(=O)NC3=O)cc2)cc1Cl` (stereo unspecified): the results for the pEC50 in test [3] and in test [2] were 7.15 and < 5.00, respectively. For the same compound, the Activity in test [6] turned out to be 26%; in test [4], 73.4%. The pIC50 in test [1] is 6.54.
In test [2], `Nc1cccc2c1C(=O)N(C1CCC(=O)NC1=O)C2=O` (stereo unspecified) [POMALIDOMIDE] had a pEC50 of 7.70.
The same measure, in the same setting: with `O=C1CCC(c2ccccc2)C(=O)N1` (stereo unspecified) the figure was < 5.00.
In turn, `Nc1cccc2c1cnn2C1CCC(=O)NC1=O` (stereo unspecified) gave a pIC50 in test [1] of 6.47. Moreover, the pEC50 in test [2] was < 5.00.
For `COc1cccc(C2CCC(=O)NC2=O)c1` (stereo unspecified) the same measures were 5.77 and < 5.00.
`Cc1ccc(NC(=O)NCc2ccc3c(c2)CN(C2CCC(=O)NC2=O)C3=O)cc1Cl` (stereo unspecified): the pEC50 in test [3] was 9.52; in test [2], 8.30. Further, the pIC50 in test [1] was 7.52. In addition, the Activity in test [4] came out at 3.9%.
For the compound `O=C1CCC(c2ccc(OCc3ccc(CN4CCOCC4)cc3)cc2)C(=O)N1` (stereo unspecified), the pEC50 in test [3] and in test [2] was < 5.00 each time. This compound also had a pIC50 in test [1] of 5.72. In test [4], the Activity was determined as 97.1%.
As to `Cc1ccc(NC(=O)NCc2cccc(C(=O)NC3CCC(=O)NC3=O)c2)cc1Cl` (stereo unspecified), the pEC50 is 7.68 in test [3] and < 5.00 in test [2]. In test [1], the pIC50 is 5.42. Further, the Activity in test [4] came out at 3.1%.
Take `Cc1ccc(NC(=O)NCc2ccc(N3CCC(=O)NC3=O)cc2)cc1Cl`: the pEC50 in test [3] and in test [2] was < 5.00 throughout. In test [1], the pIC50 is 5.33. The Activity in test [4] worked out at 93.8%.
`Cn1nc(N2CCC(=O)NC2=O)c2ccc(N)cc21`: in test [1], the pIC50 is 5.64. The pEC50 in test [2] was < 5.00.
On the same counts, the results for `O=C1CCC(NC(=O)c2ccccc2)C(=O)N1` (stereo unspecified) are 4.95 and < 5.00.
In turn, `Nc1ccc(C(=O)NC2CCC(=O)NC2=O)cc1` (stereo unspecified) had a pIC50 in test [1] of 5.26. The same compound gave a pEC50 in test [2] of 6.22.
